Assay results published in patent US5336485A, “Method for protecting animals against tacrine induced cytotoxic injury using sterol compounds” (priority 1993, dated 1994).
Where a name gives a salt, the structure may show the parent alone.

Experiments:
liver = test: Partial liver ischemia/reperfusion-induced injury in rats; format: in vivo, rat
Protocol: (§1) 20 hours prior to global occlusion, one group of 10 rats was provided with 64 mg cholesterol/kg body weight and 100 mg tris succinate/kg body weight by i.p. injection, and another group of 10 rats was provided with 100 mg cholesteryl succinate/kg body weight. A control group of rats was only partially occluded for the one hour period. Ninety percent of the rats pretreated with cholesteryl succinate tris salt survived while only 10% of those pretreated with the combination of cholesterol and tris succinate survived. Table 22 of a partial ischemia study where male Sprague-Dawley rats were subjected to occlusion of the blood supply to the left lateral and median lobes of the liver for 60 minutes followed by reperfusion for 24 hours. During this time, the normal blood supply to the other lobes of the liver was maintained. […] Serum was obtained for AST and ALT measurements.
^a Partial liver ischemia was induced in male Sprague Dawley rats

male Sprague-Dawley rats = test: Global liver ischemia/reperfusion-induced lethality in rats; format: in vivo, rat; conditions: ip 20 h prior, global ischemia 60 min; CS 100 mg/kg; cholesterol 64 + tris succinate 100 mg/kg
Protocol: as §1
^a Global (total) or partial liver ischemia was induced 20 hours

rat hepatocytes [1] = test: Intracellular K+ of rat hepatocytes exposed to EMS; format: cell-based
Excerpt: Medzhradsky, Biochem. Med. 13:164 (1975), has noted that the cell's ability to maintain its intracellular concentration of potassium (K^+) is an excellent indicator of the metabolic integrity of the cell. A concentration gradient exists for K^+ with greater concentrations found intracellularly. To maintain this gradient, the cell is dependent on the action of the Na^+ -K^+ ATPase pump and an adequate supply of ATP. As cellular ATP levels decline, the ATPase pump is unable to maintain the gradient resulting in the loss of intracellular K^+ by equilibration with the extracellular space. Because the maintenance of cellular metabolic processes is essential to the continual repair and survival of cells, organ systems, and organisms, the effect of alpha-TS on the metabolic integrity of rat liver cells during a toxic insult was investigated by measuring intracellular K^+ levels. […] At each time-point, rapid separation of viable from non-viable hepatocytes and medium was accomplished by the dibutyl phthalate centrifugation method. Cell viability was monitored hourly by measuring LDH leakage with a Cobas Analyzer and intracellular [K^+ ]with a flame photometer. […] Lipid peroxidation was determined by measuring TBA reactants in the medium. […] Alltech, Avondale, Pa.). […] Following the addition of 0.2 ml 4 M HC1, the neutralized KOH-MeOH extracted with 0.8 ml hexane. […] A standard curve for each tocopherol congener was run with every assay. […] Only viable cells were monitored in the laboratory procedures.

Sprague-Dawley rats = test: Paraquat lethality in rats; conditions: rat, in vivo
Protocol: Rats received a 100 mg/kg (ip) dose of alpha-TS twenty four hours prior to a 40 mg/kg (ip) insult of paraquat which is a lung specific toxic agent. The rats also received a 100 mg/kg (ip) dose of alpha-TS each day after the paraquat insult.

[2] = Blood alpha-TS content after oral dosing in humans; format: in vivo, human; conditions: 400 units per day, one month, three males
Excerpt: In a one month study with three human males aging from 35 to 62 years 400 units of alpha-tocopheryl succinate were taken per day. Subsequent blood samples were taken from each individual and analyzed for alpha-T and alpha-TS content. […] However, in select individuals, as determined possibly by ethnic origin or diet, tissue alpha-TS accumulation can occur with oral dosing. The absence of alpha-TS hydrolysis in the gut of the one individual in the study who had substantial amounts of alpha-TS in plasma may be attributed to the absence of duodenal secretions after oral alpha-TS administration (lack of dietary fats to stimulate duodenal secretions at the time of alpha-TS administration).

rat hepatocytes [3] = test: EMS-induced lipid peroxidation in rat hepatocyte suspensions; format: cell-based; conditions: 50 mM EMS
rat hepatocytes [4] = test: ATP content of rat hepatocyte suspensions; format: cell-based
Excerpt: It is well known that the succinate molecule is utilized by the cell to produce ATP energy. In the tricarboxylic acid cycle, succinate is oxidized by succinate dehydrogenase to produce ATP. Oxidation occurs in the mitochondria and the mitochondria can utilize both succinate formed in the mitochondria or succinate transported to the mitochondria. Increasing ATP production may enhance cellular repair processes as well as normal metabolic processes. For example, the cell's ability to remove free intracellular Ca^2+ during a toxic insult is related to ATP production. Succinate administration stimulates gluconeogenesis to form glucose 6-phosphate which is used for producing energy anaerobically (ATP formation through glycolysis) and for producing reducing equivalents (NADPH formation through the hexose monophosphate shunt needed for lipid and nucleotide biosynthesis and other biosynthetic reductions and enzymatic reactions, e.g., glutathione reductase). An in vitro experiment was conducted to determine the relationship between the release of succinate from alpha-TS and the cellular ATP level. The experiment was performed by incubating a tocopherol analog in a rat hepatocyte suspension and measuring the ATP level at the beginning and end of the test.
Rat hepatocyte suspensions were subjected to 50 mM EMS and the percentage of cell death, the percentage of intracellular K^+ (a metabolic parameter as discussed above), the depletion of ATP and the effect on lipid peroxidation were monitored.

[5] = tested on: human neuroblastoma cells; conditions: 10 μM; cited from earlier work
[6] = 100 mg/kg ip, 20 hours prior to ischemia

## CC(C)CCC[C@@H](C)[C@H]1CC[C@H]2[C@@H]3CC=C4C[C@@H](OC(=O)CCC(=O)O)CC[C@]4(C)[C@H]3CC[C@]12C [Cholesteryl Succinate tris salt]
liver; 25 mg/kg ip, vehicle 1027±235
  ALT: 358±38
liver; [6]
  ALT: 554 ± 213 Units/L
  AST: 1800 ± 904 Units/L
liver; 100 mg/kg ip, during ischemia
  ALT: 387 ± 155 Units/L
  AST: 967 ± 68 Units/L
liver; rat, in vivo
  protection in fed and fasted rats: Protection was observed for both fed and fasted rats
Male Sprague-Dawley rats
  % Survival: 90%

## Cc1c(C)c2c(c(C)c1OC(=O)CCC(=O)O)CC[C@@](C)(CCC[C@H](C)CCC[C@H](C)CCCC(C)C)O2 [alpha-TS, d-alpha-tocopheryl succinate]
Rat hepatocytes [1]; 50 mM EMS + 25 μM alpha-TS
  % Initial Intracellular [K+]: 93 ± 11 % Initial
Rat hepatocytes [1]; 50 mM EMS + 25 μM alpha-TS + 100 μM Bis-(p-nitrophenyl) phosphate
  % Initial Intracellular [K+]: 14 ± 6 % Initial
Rat hepatocytes [1]; 50 mM EMS + 25 μM alpha-TS + 100 μM Diethyl p-nitrophenyl phosphate
  % Initial Intracellular [K+]: 26 ± 2 % Initial
Rat hepatocytes [1]; 50 mM EMS, 5 Hrs, concentrations as cell death (Table 15)
  % Initial Intracellular [K+]: 86 ± 6 % Initial
Rat hepatocytes [1]; rat hepatocytes, 25 μM, 50 mM EMS
  intracellular K+ during EMS insult: no loss of intracellular K+
Sprague-Dawley rats
  survival time of paraquat exposed rats: 6 days
[2]
  alpha-TS in plasma and erythrocytes: Substantial amounts of alpha-TS in plasma and erythrocytes were observed for only one individual
Rat hepatocytes [3]; 5 Hrs, concentrations as cell death (Table 15)
  Lipid Peroxidation: 0.9 nmolMDA/10^6 cells
Rat hepatocytes [3]; Rattus norvegicus, Hepatocyte, 25 μM
  inhibition at 25 µM: 100%
Rat hepatocytes [4]; 25 μM
  Rate of ATP Depletion: 1.0 ± 0.1 nmoles/10^6 cell/hr
Rat hepatocytes [4]; 25 μM, 0 Hr
  Cellular ATP: 20.1 ± .5 nmoles/10^6 cells
Rat hepatocytes [4]; 25 μM, 6 Hr
  Cellular ATP: 14.2 ± 0.8 nmoles/10^6 cells
Rat hepatocytes [4]; 250 μM
  Rate of ATP Depletion: 0.6 ± 0.3 nmoles/10^6 cell/hr
Rat hepatocytes [4]; 250 μM, 0 Hr
  Cellular ATP: 15.2 ± 1.6 nmoles/10^6 cells
Rat hepatocytes [4]; 250 μM, 6 Hr
  Cellular ATP: 11.7 ± 2.0 nmoles/10^6 cells
Rat hepatocytes [4]; 50 mM EMS, 5 Hrs, 25 μM (Table 15)
  % Initial Intracellular [ATP]: 45 ± 2 % Initial
[5]
  tumor cell growth: inhibits tumor cell growth
